Experimental data reported in US20250057862A1, “SIALIC ACID COMPOSITIONS FOR USE IN INHIBITING AND TREATING INFECTIONS IN FISH” (LifeScience AS, priority 2021, published 2025).
Entries after “also recorded” stand apart in the source; their conditions may differ.

Columns and labels:
[1] = Example 2 mucosal health of gills and skin after sea lice challenge; format: in vivo, Atlantic salmon; conditions: fifteen days following challenge with salmon lice; 2 of 3 tanks
Experimental: An experiment was conducted to determine the mucosal health status of gills, dorsal skin and foregut of Atlantic salmon smolt and postsmolt given sialic acid (NANA) treatment at a single dose (1% in feed) or a control treatment and challenged by sea lice exposure.
Atlantic salmon were reared in the flow-through system of the ILAB facility at 12 C and were reared in freshwater through smoltification to seawater in six tanks, 3 tanks per treatment. The gills and dorsal skin of the fish (n=30 per date, 5 from each replicate tank) were individually sampled on each of the following dates. The foregut of 30 fish was sampled once, while skin samples were not collected on the same date. The samples were processed (buffered formalin fixation, paraffin embedding, sectioned and stained with PAS-AB), digitally scanned and analyzed for mucous cell density (% epithelium filled with mucous cells, A), defense (mucous) cell sizes (mucous cell area, μm^2, D) and defense activity (barrier status, =(1/(A:D))×1000).
The fish were transferred to two large holding tanks and challenged with salmon lice and sampled 15 days later.

[2] = Growth and condition (weight, length, fitness factor) on 1% Neu5Ac feed; format: in vivo, Atlantic salmon (Salmo salar); conditions: postsmolt, Day 78
Experimental: (§1) The example describes additional results obtained from feeding salmon a diet containing 1% Neu5Ac w/w. A feeding and morbidity experiment with Atlantic salmon (Salmo salar) was carried out at the Industrial Laboratory in Bergen (ILAB). The purpose of the trial was to investigate the effect of adding 1% Neu5Ac to feed on growth, certain fish health indicators, and the fish's resistance and welfare when infected with salmon lice and ILA virus, respectively. The trial included six main phases, the last two of which ran parallel with different infectious agents (FIG. 4).
(§2) Day 1-8: Acclimatization. Presmolt (approx. 40 g starting weight), freshwater phase. • Bulk weighing of all fish on day 1. • NB: All the fish received exclusively control feed during the acclimatization phase. • Day 8: First sampling. Day 9-41: Growth and preparation for smoltification, freshwater phase. • Different diets started (and continued) from day 9 onwards. • Light regime changed from 12:12 light/dark to 24 hours light on day 15. • Bulk weighing of fish on day 25. • Temperature increased from 12 to 14 degrees on day 28. • Smoltification starts in response to changed light regime and changed temperature. • Day 36: Second sampling. • Bulk weighing of fish on day 37. Day 42-50: Smoltification, transition and acclimatization to saltwater phase. • From 20 salt water from day 42, full salinity and presumed complete smoltification by day 44. • Day 50: Third sampling. • Day 51-78: Postsmolt, growth in seawater phase. • Growth on different diets, no other manipulations. • Day 78: Fourth sampling. Day 79-94: Infection test—salmon lice • A proportion of the fish were taken out of all test vessels on day 79; anesthetized, marked, collected in a common large vessel and infected with salmon lice. • Bulk weighing of the fish taken out for the lice test. • The experimental fish were then distributed according to original diet group, in two new vessels, for further observation. • Day 94: Fourth sampling, lice test completed. […]

[3] = Sialic acids in skin and intestinal mucus and plasma of salmon fed 1% Neu5Ac (bioavailability); format: in vivo, Atlantic salmon (Salmo salar)
Experimental: as §1
as §2, with “sampling.” for “sampling. Day 79-94: Infection test—salmon lice • A proportion of the fish were taken out of all test vessels on day 79; anesthetized, marked, collected in a common large vessel and infected with salmon lice. • Bulk weighing of the fish taken out for the lice test. • The experimental fish were then distributed according to original diet group, in two new vessels, for further observation. • Day 94: Fourth sampling, lice test completed.”
To separate life history effects from a general assessment of bioavailability, the samples from the longest continuous growth phase are first analyzed without experimental manipulations. […]

CC(=O)N[C@H]1[C@H]([C@H](O)[C@H](O)CO)OC(O)(C(=O)O)C[C@@H]1O (stereo partly shown) [Neu5Ac, N-acetyl neuraminic acid]
Gill mucous cell size after challenge [1]: not significantly reduced | % Increase in fitness (condition) factor vs control [2]: 19% | % Increase in length vs control [2]: 5% | % Increase in weight vs control [2]: 22% | Bioavailability of free Neu5Ac in feed ([3]; 1% Neu5Ac in feed, salmon, listed as Free Neu5Ac): bioavailable; also recorded: biologically available | Free Neu5Ac in the intestinal mucosa vs control diet ([3]; postsmolt, Day 78): highly significant | Total Neu5Ac in the intestinal mucosa vs control diet (elevated level) ([3]; postsmolt, Day 78): weakly significant
